Values after ≈ are worked out from the molar mass of the structure shown.
How the values were obtained:
Type in all cases: cell-based
[1] = system: human umbilical vein epithelial cells HUVEC; assay: in vitro proliferation inhibition on normal cells (CCK-8); conditions: 48 h, read-out: half-inhibitory concentration
From the text: (§1) Osteosarcoma cell line 143B, HOS, and U2, liver cancer cell line HepG2, breast cancer cell line MDA-MB-231 and T47D, gastric cancer cell line AGS, BGC-823, and SGC-7901, cervical cancer cells Hela, lung cancer cells A549, intestinal cancer cells Caco2, mouse glioma cells BV-2, human prostate cancer cells PC3, human thyroid cancer cell line BCPAP, human normal liver cell line L02, human normal gastric cell line GES, human umbilical vein epithelial cells HUVEC, and human embryonic lung fibroblasts WI-38 were cultured in a DMEM medium containing 10% fetal bovine serum and 1×HEPES in a humid incubator (37° C., 5% CO2). The cells were passaged with trypsin-EDTA in logarithmic phase. Certain density of cells (AGS, T47D, Caco2, BCPAP, GES, HUVEC 1×10^5 cells per well; HepG2, MDA-MB-231, BGC-823, A549, PC3, L02 8×10^4 cells per well; 143B, HOS, U2, SGC-7901, Hela, BV-2, 5×10^4 cells per well; WI-38, 3×10^5 cells per well) were inoculated in a 96-well plate, and cultured for 24 h before treatment. After replacing a fresh medium, 12.5 mg/L to 400 mg/L, of quercetin 3,3′-dimethyl ether dissolved with DMSO was added into a medium (a final volume ratio was 0.1%, and the DMSO was used as a […]). After incubation for 48 h, a complete medium was replaced with a serum-free medium containing 10% CCK-8 reagent. The absorbance at 450 nm and 620 nm was measured separately after the cells were incubated for 1 h. Each experiment was repeated three times independently.

[2] = system: human normal gastric cell line GES; assay: as above; conditions: 48 h, read-out: half-inhibitory concentration
From the text: as §1

[3] = system: human embryonic lung fibroblasts WI-38; assay: as above; conditions: 48 h, read-out: half-inhibitory concentration
From the text: as §1

[4] = system: human normal liver cell line L02; assay: as above; conditions: 48 h, read-out: half-inhibitory concentration
From the text: as §1

[5] = system: Osteosarcoma cell line HOS; assay: in vitro cell proliferation inhibition (CCK-8); conditions: 48 h incubation, read-out: IC50
From the text: (§2) Osteosarcoma cell line 143B, HOS, and U2, liver cancer cell line HepG2, breast cancer cell line MDA-MB-231 and T47D, gastric cancer cell line AGS, BGC-823, and SGC-7901, cervical cancer cells Hela, lung cancer cells A549, intestinal cancer cells Caco2, mouse glioma cells BV-2, human prostate cancer cells PC3, human thyroid cancer cell line BCPAP, human normal liver cell line L02, human normal gastric cell line GES, human umbilical vein epithelial cells HUVEC, and human embryonic lung fibroblasts WI-38 were cultured in a DMEM medium containing 10% fetal bovine serum and 1×HEPES in a humid incubator (37° C., 5% CO2). The cells were passaged with trypsin-EDTA in logarithmic phase. Certain density of cells (AGS, T47D, Caco2, BCPAP, GES, HUVEC 1×10^5 cells per well; HepG2, MDA-MB-231, BGC-823, A549, PC3, L02 8×10^4 cells per well; 143B, HOS, U2, SGC-7901, Hela, BV-2, 5×10^4 cells per well; WI-38, 3×10^5 cells per well) were inoculated in a 96-well plate, and cultured for 24 h before treatment. After replacing a fresh medium, 12.5 mg/L to 400 mg/L of quercetin, quercetin 3-methyl ether, and quercetin 3,3′-dimethyl ether dissolved with DMSO were added into the medium (a final volume ratio was 0.1%, and the DMSO was used as a […]). After incubation for 48 h, a complete medium was replaced with a serum-free medium containing 10% CCK-8 reagent. The absorbance at 450 nm and 620 nm was measured separately after the cells were incubated for 1 h. Each experiment was repeated three times independently.
as §1

[6] = system: breast cancer cell line MDA-MB-231; assay: in vitro cell proliferation inhibition (CCK-8); conditions: Homo sapiens, 48 h incubation, read-out: IC50
From the text: as §2, §1

[7] = system: intestinal cancer cells Caco2; assay: in vitro cell proliferation inhibition (CCK-8); conditions: Homo sapiens, Caco-2, 48 h incubation, read-out: IC50
From the text: as §2, §1

[8] = system: Osteosarcoma cell line U2; assay: in vitro cell proliferation inhibition (CCK-8); conditions: 48 h incubation, read-out: IC50
From the text: as §2, §1

[9] = system: cervical cancer cells Hela; assay: in vitro cell proliferation inhibition (CCK-8); conditions: Homo sapiens, 48 h incubation, read-out: IC50
From the text: as §2, §1

[10] = system: human prostate cancer cells PC3; assay: in vitro cell proliferation inhibition (CCK-8); conditions: Homo sapiens, 48 h incubation, read-out: IC50
From the text: as §2, §1

[11] = system: gastric cancer cell line AGS; assay: in vitro cell proliferation inhibition (CCK-8); conditions: 48 h incubation, read-out: IC50
From the text: as §2, §1

[12] = system: breast cancer cell line T47D; assay: in vitro cell proliferation inhibition (CCK-8); conditions: Homo sapiens, 48 h incubation, read-out: IC50
From the text: as §2, §1

[13] = system: Osteosarcoma cell line 143B; assay: in vitro cell proliferation inhibition (CCK-8); conditions: Homo sapiens, 48 h incubation, read-out: IC50
From the text: as §2, §1

[14] = system: liver cancer cell line HepG2; assay: in vitro cell proliferation inhibition (CCK-8); conditions: Homo sapiens, 48 h incubation, read-out: IC50
From the text: as §2, §1

[15] = system: gastric cancer cell line SGC-7901; assay: in vitro cell proliferation inhibition (CCK-8); conditions: Homo sapiens, SGC-7901, SGC7901, 48 h incubation, read-out: IC50
From the text: as §2, §1

mouse glioma cells BV-2 = assay: in vitro cell proliferation inhibition (CCK-8); conditions: Mus musculus, Glioma cell, BV2, 48 h incubation, read-out: IC50
From the text: as §2, §1

lung cancer cells A549 = assay: in vitro cell proliferation inhibition (CCK-8); conditions: Homo sapiens, 48 h incubation, read-out: IC50
From the text: as §2, §1

[16] = system: human thyroid cancer cell line BCPAP; assay: in vitro cell proliferation inhibition (CCK-8); conditions: Homo sapiens, 48 h incubation, read-out: IC50
From the text: as §2, §1

[17] = system: gastric cancer cell line BGC-823; assay: in vitro cell proliferation inhibition (CCK-8); conditions: Homo sapiens, BGC-823, BGC823, 48 h incubation, read-out: IC50
From the text: as §2, §1

HepG2 cells = assay: scratch test, metastasis capacity; conditions: 1 mg/L, after 1 d (24 h) of incubation
Protocol: HepG2 cells with a cell density of 5×10^5/mL were plated on a 6-well plate (1 mL per well), added to a DMEM medium containing 10% fetal calf serum, and cultured overnight to form a monolayer of cells. A horizontal scratch was scratched on the monolayer of cells with a pipette tip of 200 μL, washed with PBS 3 times, added into a DMEM medium containing 10% fetal bovine serum, and then added with 1 mg/L of a quercetin 3,3′-dimethyl ether solution, while DMSO was used as a solvent control, and then incubated for 24 h.

COc1cc(-c2oc3cc(O)cc(O)c3c(=O)c2OC)ccc1O [Quercetin 3,3′-dimethyl ether, quercetin 3,3′-dimethyl ether]
IC50 [1]: > 100 µg/mL
IC50 [2]: > 100 µg/mL
IC50 [3]: > 100 µg/mL
IC50 [4]: > 100 µg/mL
IC50 [5]: 18.6 µg/mL (≈ 56.3 µM)
IC50 [6]: 11.4 µg/mL (≈ 34.5 µM)
IC50 [7]: 21.4 µg/mL (≈ 64.8 µM)
IC50 [8]: 49.5 µg/mL (≈ 150 µM)
IC50 [9]: 11.1 µg/mL (≈ 33.7 µM)
IC50 [10]: 31.3 µg/mL (≈ 94.7 µM)
IC50 [11]: 15.8 µg/mL (≈ 47.9 µM)
IC50 [12]: 13.3 µg/mL (≈ 40.4 µM)
IC50 [13]: 21.6 µg/mL (≈ 65.5 µM)
IC50 [14]: 5.85 µg/mL (≈ 17.7 µM)
IC50 [15]: 28.4 µg/mL (≈ 85.9 µM)
IC50 (mouse glioma cells BV-2): 21.1 µg/mL (≈ 63.9 µM)
IC50 (lung cancer cells A549): 17.4 µg/mL (≈ 52.6 µM)
IC50 [16]: 12.3 µg/mL (≈ 37.2 µM)
IC50 [17]: 26.1 µg/mL (≈ 78.9 µM)
intercellular space (scratch) versus control group (HepG2 cells): significantly higher

From patent publication US20240173289A1, “USE OF OXYMETHYL-MODIFIED DERIVATIVE OF QUERCETIN IN PREPARATION OF DRUG FOR INHIBITING TUMOR CELL PROLIFERATION” (ZHEJIANG UNIVERSITY, priority 2021, published 2024)
